Laboratory results: PMC10069031 (European Journal of Medical Research, 2023)

Columns and labels:
ERK1/2 = test: Inhibition of ERK activation in CSF1-stimulated RAW264.7 cells (western blot); type: cell-based, mouse; conditions: Mus musculus, mean ± SD (replicates), read-out: Mean kinase IC50 values: P(T185,202;Y187,204) ERK1/2 [WB]
Method: RAW264.7 cells (10^6) were seeded into cell culture dishes 6 cm in diameter and incubated in 4 mL RPMI/10% fetal bovine serum (Biochrom) for 24 h at 37 °C in a humidified 5% CO2 atmosphere. Cells were washed once with phosphate-buffered saline (PBS) and starved in 3 mL RPMI/0.1% bovine serum albumin for another 24 h. Cells were then treated for 1 h at 37 °C with drugs at the indicated final concentrations, with 0.5% DMSO as vehicle control, or left untreated, and finally stimulated for 2 min at 37 °C with 100 ng/mL recombinant mouse CSF1 (R&D Systems) by adding 1 mL prewarmed starving medium containing 400 ng/mL CSF1. Dishes were placed on ice and cells were immediately washed with ice-cold PBS and lysed with 50 µL lysis buffer (50 mM HEPES pH 7.5, 150 mM NaCl, 1.5 mM MgCl2, 10% glycerol, 1% Triton X-100, 0.5% desoxycholate, 0.2% sodium dodecyl sulfate, 1 mM ethylene glycol-bis[β-aminoethyl ether]-N,N,N′,N′-tetraacetic acid, 100 mM NaF, 10 mM Na4P2O7, 1 mM Na3VO4, 1% Phosphatase Inhibitor Cocktail 3 [Sigma-Aldrich], 1 mM phenylmethyl sulfonyl fluoride, Complete Protease Inhibitor Cocktail [Roche CustomBiotech; 1 tablet/10 mL], and 50 U/mL Benzonase [Sigma-Aldrich]). Lysed cells were scraped into Eppendorf tubes, incubated on ice for 20 min, and centrifuged at 4 °C for 10 min at 13,000 rpm; supernatants (lysates) were transferred into new tubes and stored at −80 °C.
Protein concentrations were determined using Pierce bicinchoninic acid assay (Thermo Fisher Scientific) and 40 µg/lane of total lysate was separated by SDS-PAGE on 4–12% Criterion XT Bis–Tris Gels (Bio-Rad) and subsequently transferred to polyvinylidene difluoride membranes using the Trans Blot Turbo Blotting System (Bio-Rad). For antigen detection, membranes were blocked with PBS Odyssey blocking reagent (LI-COR Biosciences) for 1 h at room temperature (RT). Primary antibodies were incubated overnight at 4 °C and the fluorescent secondary antibodies were incubated for 1 h at RT. After each antibody incubation, blots were washed with PBS with 0.05% Tween 20 (Carl Roth) for 15–30 min at RT. Fluorescent signals were quantitatively captured using the Odyssey DLx Infrared Imaging System (LI-COR Biosciences) and the half-maximal inhibitory concentration (IC50) values were calculated using GraphPad software (version 7 or newer).

CT26 tumors = test: Growth of subcutaneous CT26 tumors in BALB/c mice; type: in vivo, mouse; conditions: CRC tumors in mice
Method: CT26 tumor cells were cultivated in RPMI 1640 with 2 mM L-glutamine (Gibco, Invitrogen GmbH) containing 10% fetal bovine serum (Gibco) at 37 °C and 5% CO2. Cell lines were maintained in culture for no longer than 6 months, and mycoplasma contamination was excluded by enzymatic test (MycoAlert, Lonza) prior to in vivo application. Tumor cells (2 × 10^6) were transplanted subcutaneously into 6- to 8-week-old female BALB/c mice. Control mice were subjected to sham surgery without tumor cell transplantation. Blood and tumor samples were collected from untreated control and tumor-bearing mice on days 4 and 8 (n = 3 mice/group). […] Tumor diameter was measured by caliper and body weight was determined at least twice weekly. Tumor volume was calculated using the formula 0.5 × a × b^2, where a and b are the long and short diameters of the tumor, respectively.
For tissue collection, mice were killed at predetermined time points. […] Tumors were removed, and their weights determined, then divided into three pieces, one of which was snap-frozen, one formalin fixed and paraffin embedded, and one weighed and used for FC analyses. […]
An overall comparison between treatment groups of the endpoints measured on CT26 and MC38 mice after they had been killed was performed using different statistical models. […]

## CNC(=O)c1cc(Oc2ccc(NC(=O)Nc3ccc(Cl)c(C(F)(F)F)c3)c(F)c2)ccn1 [REG, Regorafenib]
ERK1/2
  IC50: 293 ± 123 nM
CT26 tumors
  partial or complete remission: did not induce partial or complete remission
  tumor growth vs vehicle: significantly inhibited
